This is an account of results in publication PMC6151569 (Molecules : A Journal of Synthetic Chemistry and Natural …, 2017).

Data set [1] concerns the target T1, p38α MAP kinase (Homo sapiens, UniProt Q16539). The conditions noted are these: metabolite of ML3403; cited from earlier work.
Data set [2] can be described thus: HLM stability test with LC-MS metabolite screening. In kind it is in vitro ADME, human. The conditions noted are these: for Degradation: compound remaining, AVERAGE: HLM; for biotransformation / degradation: after 4 h of incubation with HLM; for compound present / remaining unmetabolized: after incubation time of 4 h with HLM. As for the experimental part: Pooled human liver microsomes (adult male & female) were purchased from Merck (Schnelldorf, Germany). These microsomes were characterized in protein and CYP content. All incubations (final total volume 1050 µL) were made in the presence of an NADPH-regenerating system, consisting of 5 mM Glucose-6-phosphate, 5 U/mL Glucose-6-phosphate dehydrogenase and 1 mM NADP^+. The substrate (100 μM), the NADPH regenerating system and 4 mM MgCl2 × 6 H2O in 0.1 M Tris buffer (pH 7.4 at 37 °C) were preincubated for 5 min in an incubator at 37 °C and 750 rpm. The incubation mix was split into 50 μL aliquots and the reaction was started by addition of the HLM. Thereby the microsomal protein content was standardized to 1 mg/mL. To follow the course of metabolism, the reaction tubes were quenched at selected time points (0, 10, 20, 30, 60, 120, 180 and 240 min) by adding 100 μL internal standard at a concentration of 22.5 µM in MeCN. The samples were vortexed for 30 s and centrifuged (19,800 relative centrifugal force/4 °C/10 min). The supernatant was directly used for LC-MS analysis (for detailed LC-MS conditions, see supplementary materials). […] In all incubations, a limit of 1% organic solvent was not exceeded. […]
Screening of Metabolites by LC-MS Analysis
Metabolite formation was analyzed with an Alliance 2695 Separations Module (Waters GmbH, Eschborn). Sam ples maintained at 4°C, the column tem perature was set to 40°C and inj ection volume was 10 μL. The chromatographic separation for analytes 1 and ML3404 was performed on a Phenomenex Synergi Max-RP column (150 x 4.6 mm; 5 μm); LN950 and 2 on a Phenomenex Synergi Polar-RP column (150 x 4.6 mm; 5 μm) with a precolumn of the same material, respectively. An isocratic gradient of 8.5 min with 30% solvent A (90% H2O, 10% ACN, 0.1% formic acid) and 70% solvent B (ACN, 0.1% formic acid) at a flow rate of 400 μL/min was used for LN950. 1 and ML3404 were chromatographically separated by a binary gradient of 11.25 min with the equal solvents as mentioned before at a flow rate of 400 μL/min. The initial composition of 10% B was held for 20 sec, followed by a linear gradient up to 85% B in 5.8 min, holding for 30 sec, immediately changing to 10% B and reequilibrating at the end. The detection was performed on a Micromass Quattro micro triple quadrupole mass spectrometer (Waters GmbH, Eschborn) using the electrospray-ionization in the positive-mode. Correspondent to the analyte the spray voltage was set to 3.0-4.0 kV. The heated capillary o perated at 250°C and the desolvation gas flow worked at 500 L/h.

For data set [3], the target named is T2, CYP1A2 (Homo sapiens, UniProt P05177).
T2 construct: purchased Eurofins Panlabs Inc. (contract assay)
T2 sequence (P05177 1-516): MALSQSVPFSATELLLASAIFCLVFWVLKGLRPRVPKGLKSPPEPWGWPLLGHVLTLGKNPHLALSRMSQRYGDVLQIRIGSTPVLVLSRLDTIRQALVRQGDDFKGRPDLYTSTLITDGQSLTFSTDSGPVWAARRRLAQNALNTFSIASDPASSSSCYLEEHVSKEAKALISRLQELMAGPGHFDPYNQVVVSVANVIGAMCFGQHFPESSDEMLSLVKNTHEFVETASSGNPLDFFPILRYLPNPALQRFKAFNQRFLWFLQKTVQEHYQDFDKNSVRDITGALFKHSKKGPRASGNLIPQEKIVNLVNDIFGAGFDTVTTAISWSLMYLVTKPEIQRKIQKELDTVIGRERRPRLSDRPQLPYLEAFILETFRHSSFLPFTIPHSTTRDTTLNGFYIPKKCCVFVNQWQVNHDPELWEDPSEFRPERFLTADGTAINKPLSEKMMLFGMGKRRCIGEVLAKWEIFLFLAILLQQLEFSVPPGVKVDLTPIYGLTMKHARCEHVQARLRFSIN
The data set can be described thus: CYP inhibition (fluorimetric detection) assay. Type of data set: in vitro ADME. The conditions noted are these: recombinant human CYP1A2, read-out: (%) inhibition of CYP 1A2. As for the experimental part:
(§1) CYP inhibition (fluorimetric detection) assay was performed by Eurofins Panlabs Inc. (St. Charles, MO, USA) with human recombinant CYP enzyme and the appropriate CYP substrate.

Data set [4] has as its target T3, CYP2C19 (Homo sapiens, UniProt P33261).
T3 construct: purchased Eurofins Panlabs Inc. (contract assay)
The data set can be described thus: CYP inhibition (fluorimetric detection) assay. Type of data set: in vitro ADME. Conditions: recombinant human CYP2C19, read-out: (%) inhibition of CYP 2C19. The protocol: as §1

Data set [5] concerns the target T4, CYP2C9 (Homo sapiens, UniProt P11712).
T4 construct: purchased Eurofins Panlabs Inc. (contract assay)
The data set can be described thus: CYP inhibition (fluorimetric detection) assay. In kind it is in vitro ADME. The conditions noted are these: recombinant human CYP2C9, read-out: (%) inhibition of CYP 2C9. The protocol:
as §1

For data set [6], the target named is T5, CYP2D6 (Homo sapiens, UniProt P10635).
T5 construct: purchased Eurofins Panlabs Inc. (contract assay)
T5 sequence (P10635 whole entry): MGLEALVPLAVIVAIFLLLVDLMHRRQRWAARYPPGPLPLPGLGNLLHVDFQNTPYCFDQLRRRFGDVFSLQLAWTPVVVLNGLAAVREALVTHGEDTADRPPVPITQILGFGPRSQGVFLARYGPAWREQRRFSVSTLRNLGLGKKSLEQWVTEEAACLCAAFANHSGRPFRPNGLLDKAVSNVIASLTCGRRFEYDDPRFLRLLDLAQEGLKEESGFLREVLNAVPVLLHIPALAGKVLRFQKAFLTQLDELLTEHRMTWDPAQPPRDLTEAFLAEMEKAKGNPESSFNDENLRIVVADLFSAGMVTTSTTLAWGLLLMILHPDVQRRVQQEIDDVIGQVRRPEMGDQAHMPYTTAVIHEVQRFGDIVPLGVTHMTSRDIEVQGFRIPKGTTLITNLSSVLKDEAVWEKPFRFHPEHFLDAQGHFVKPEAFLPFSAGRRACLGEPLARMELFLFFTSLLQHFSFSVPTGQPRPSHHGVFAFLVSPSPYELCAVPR
The data set can be described thus: CYP inhibition (fluorimetric detection) assay. Type of data set: in vitro ADME. Conditions: recombinant human CYP2D6, read-out: (%) inhibition of CYP 2D6. The protocol: as §1

In data set [7] the target is T6, CYP3A4 (Homo sapiens, UniProt P08684).
T6 construct: purchased Eurofins Panlabs Inc. (contract assay)
T6 sequence (P08684 whole entry): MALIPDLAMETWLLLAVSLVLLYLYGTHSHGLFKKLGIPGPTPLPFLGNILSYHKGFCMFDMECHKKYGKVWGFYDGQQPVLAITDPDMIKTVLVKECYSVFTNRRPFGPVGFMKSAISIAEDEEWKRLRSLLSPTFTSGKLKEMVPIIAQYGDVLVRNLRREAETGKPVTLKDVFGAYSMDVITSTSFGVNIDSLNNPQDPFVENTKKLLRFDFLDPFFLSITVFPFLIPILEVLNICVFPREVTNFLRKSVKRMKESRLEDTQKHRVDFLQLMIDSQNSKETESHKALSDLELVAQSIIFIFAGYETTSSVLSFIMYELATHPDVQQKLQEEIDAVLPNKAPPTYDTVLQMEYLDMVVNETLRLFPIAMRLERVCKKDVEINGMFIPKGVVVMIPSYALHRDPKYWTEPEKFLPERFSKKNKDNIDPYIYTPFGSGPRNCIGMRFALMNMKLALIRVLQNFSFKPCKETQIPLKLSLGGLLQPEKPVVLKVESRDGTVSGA
The data set can be described thus: CYP inhibition (fluorimetric detection) assay. Type of data set: in vitro ADME. The conditions noted are these: recombinant human CYP3A4, read-out: (%) inhibition of CYP 3A4. The protocol:
as §1

For data set [8], the target named is T1, p38α MAP kinase. Conditions: read-out: FP Assay p38α Ki; cited from earlier work.
Data set [9] relates to LPS-stimulated TNF-α release from human whole blood. The conditions noted are these: cited from earlier work.
The target in data set [10] is T1, p38α MAP kinase. The data set can be described thus: ELISA assay, inhibition of p38α MAP kinase. In kind it is biochemical. The conditions noted are these: for IC50: n = 3. The protocol:
(§2) 2-Alkylsulfanyl imidazoles 1 and 2 were evaluated in an enzyme-linked immunosorbent assay (ELISA) as well as in a fluorescence polarization (FP)-based assay for their ability to inhibit and bind to the p38α MAP kinase. Moreover, the ability of the novel compounds to inhibit the LPS-stimulated TNF-α release in HWB was tested. In this ex vivo assay, the efficacy of the inhibitors is determined more specifically with regard to pharmacokinetic characteristics such as cellular permeability and plasma protein binding.

For data set [11], the target named is T1, p38α MAP kinase. The data set can be described thus: fluorescence polarization (FP)-based binding assay. The conditions noted are these: for increase in binding affinity toward p38α MAP kinase relative to the 2-alkylsulfanylimidazole counterpart: 1 vs ML3403, 2 vs LN950; for Ki: n = 3. As for the experimental part:
as §2
For orientation: Polarisation of emitted light reports the rotation of a fluorescent probe.

The subject of data set [12] is LPS-stimulated TNF-α release from human whole blood. The data set can be described thus: HWB assay, inhibition of LPS-stimulated TNF-α release. Type of data set: cell-based. The conditions noted are these: n = 2. The protocol: as §2
Data set [13] relates to CYP isoforms 1A2, 2C9, 2C19, 2D6 and 3A4. The data set can be described thus: CYP inhibition screening, statements on the whole panel. Type of data set: in vitro ADME, human. The protocol: as §1
For data set [14], the system named is CYP1A2, CYP2C9, CYP2C19, CYP2D6 and CYP3A4. The description is as above. Type of data set: in vitro ADME, human. Conditions: human. The protocol:
as §1

The conditions of data set [15]: male and female human liver microsomes; cited from earlier work.
For data set [16] the following is noted: mouse liver microsomes; cited from earlier work. (Liver microsomes are a subcellular fraction often used to study metabolism.)
The conditions of data set [17]: rat liver microsomes; cited from earlier work.

Like-named read-outs stand apart in the source and are kept apart here.

T1 sequence (Q16539 whole entry): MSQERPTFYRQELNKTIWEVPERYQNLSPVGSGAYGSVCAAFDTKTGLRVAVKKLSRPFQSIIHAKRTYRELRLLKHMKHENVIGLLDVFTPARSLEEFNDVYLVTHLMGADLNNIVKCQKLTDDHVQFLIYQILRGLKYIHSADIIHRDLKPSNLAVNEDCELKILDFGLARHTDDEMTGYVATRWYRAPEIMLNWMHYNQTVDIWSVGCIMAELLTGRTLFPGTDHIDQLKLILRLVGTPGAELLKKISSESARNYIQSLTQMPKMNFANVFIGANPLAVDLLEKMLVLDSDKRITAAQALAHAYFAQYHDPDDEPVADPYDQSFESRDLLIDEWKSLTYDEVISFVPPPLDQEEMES
T3 sequence (P33261 whole entry): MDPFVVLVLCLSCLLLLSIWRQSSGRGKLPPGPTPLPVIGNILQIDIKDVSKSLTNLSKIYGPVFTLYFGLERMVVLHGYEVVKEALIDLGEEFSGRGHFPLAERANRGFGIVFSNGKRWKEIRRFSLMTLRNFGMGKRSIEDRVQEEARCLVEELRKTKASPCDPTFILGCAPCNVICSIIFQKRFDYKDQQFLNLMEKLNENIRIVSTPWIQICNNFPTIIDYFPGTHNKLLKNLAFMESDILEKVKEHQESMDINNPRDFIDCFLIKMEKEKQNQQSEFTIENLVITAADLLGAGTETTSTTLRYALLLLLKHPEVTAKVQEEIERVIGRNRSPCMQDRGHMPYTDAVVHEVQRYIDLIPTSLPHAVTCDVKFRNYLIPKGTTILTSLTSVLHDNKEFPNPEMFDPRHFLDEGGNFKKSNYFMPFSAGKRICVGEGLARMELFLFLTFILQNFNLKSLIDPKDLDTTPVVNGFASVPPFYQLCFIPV
T4 sequence (P11712 whole entry): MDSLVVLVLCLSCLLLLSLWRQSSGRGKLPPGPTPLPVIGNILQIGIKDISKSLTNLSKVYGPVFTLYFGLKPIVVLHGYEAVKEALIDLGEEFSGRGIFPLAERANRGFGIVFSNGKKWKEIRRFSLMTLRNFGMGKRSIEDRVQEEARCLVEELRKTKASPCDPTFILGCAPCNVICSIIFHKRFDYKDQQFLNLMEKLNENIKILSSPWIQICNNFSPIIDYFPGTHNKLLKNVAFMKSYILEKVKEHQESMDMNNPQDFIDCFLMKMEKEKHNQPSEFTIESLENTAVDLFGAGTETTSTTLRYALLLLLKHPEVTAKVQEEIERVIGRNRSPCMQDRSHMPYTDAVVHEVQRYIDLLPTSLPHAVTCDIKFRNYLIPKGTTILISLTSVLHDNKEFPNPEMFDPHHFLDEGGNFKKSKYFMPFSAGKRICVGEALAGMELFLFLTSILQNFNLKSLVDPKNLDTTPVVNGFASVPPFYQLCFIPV

`CC(Nc1cc(-c2nc([S+](C)[O-])[nH]c2-c2ccc(F)cc2)ccn1)c1ccccc1` (stereo not shown) [ML3603]: in [1], the “activity on p38α MAP kinase” value was “active”.

For `CC(C)C(C)Nc1cc(-c2nc(SCCO)[nH]c2-c2ccc(F)cc2)ccn1` (stereo not shown) [LN950, 2-((5-(4-fluorophenyl)-4-(2-((3-methylbutan-2-yl)amino)pyridin-4-yl)-1H-imidazol-2-yl)thio)ethan-1-ol, reference compound], the “Degradation: compound remaining, AVERAGE” value in [2] (0 min) amounted to 100.00%; in data set [2] (10 min) it was 86.86%; in data set [2] (20 min) it was 77.42%; in [2] (30 min) it was 61.96%; in [2] (60 min), 51.99%; in data set [2] (120 min) it was 37.23%. In addition, the “Degradation: compound remaining, AVERAGE” value in data set [2] (180 min) was 32.10%; in data set [2] (240 min), 28.49%. Also, the biotransformation / degradation in data set [2] is on record as > 70%. In addition, the inhibition at 10 µM in [3] is 28%; in [4], 63%; in data set [5], 91.5%; in [6], 41.5%; in [7], 61%. Further, the inhibition constant (Ki) in [8] was 4 ± 1 nM. The IC50 in data set [9] (LPS-stimulated human whole blood, read-out: HWB Assay TNF-α IC50) was 37 ± 4 nM.

For the compound `CC(C)C(C)Nc1cc(-c2[nH]c(CCCO)nc2-c2ccc(F)cc2)ccn1` (stereo not shown) [compound 2, 3-(4-(4-Fluorophenyl)-5-(2-((3-methylbutan-2-yl)amino)pyridin-4-yl)-1H-imidazol-2-yl)propan-1-ol], the IC50 worked out at 11 ± 5 nM in data set [10] and 32 ± 1 nM in data set [12]. Besides, the “more active than reference compound ML3403” value in data set [10] (p38α MAP kinase) was determined as 3.6 fold. Besides, in [11], the “increase in binding affinity toward p38α MAP kinase relative to the 2-alkylsulfanylimidazole counterpart” value is recorded as 4 fold. In addition, the affinity in [11], expressed as Ki, was 1 ± 0.2 nM. The “Degradation: compound remaining, AVERAGE” value in data set [2] (0 min) is 100.00%; in [2] (10 min) it was 97.15%; in data set [2] (20 min), 93.57%; in data set [2] (30 min), 91.84%; in data set [2] (60 min), 91.99%; in data set [2] (120 min), 91.57%. Also, the “Degradation: compound remaining, AVERAGE” value in data set [2] (180 min) is listed as 90.42%; in data set [2] (240 min), 89.73%. Further, the biotransformation / degradation in data set [2] stood at 10%. The inhibition at 10 µM in data set [3] is 69.4%; in data set [4], 83.6%; in [5], 61.9%; in data set [6] it was 78.8%; in [7] it was 92.1%; in [14] it was > 60%. Also, the “CYP test concentration of 10 µM relative to the IC50 value in the kinase activity assay” value in data set [13] is on record as ~1000 fold.

For `CCc1nc(-c2ccc(F)cc2)c(-c2ccnc(NC(C)c3ccccc3)c2)[nH]1` (stereo not shown) [compound 1, 4-(2-Ethyl-4-(4-fluorophenyl)-1H-imidazol-5-yl)-N-(1-phenylethyl)pyridin-2-amine], the half-inhibitory concentration (IC50) in data set [10] is 25 ± 2 nM; in [12] it was 2539 ± 20 nM. Also, in data set [11], the “increase in binding affinity toward p38α MAP kinase relative to the 2-alkylsulfanylimidazole counterpart” value was found to be 4 fold. In addition, in data set [11], the Ki is 11 ± 3 nM. For the same compound, the “Degradation: compound remaining, AVERAGE” value was determined as 100.00% in data set [2] (0 min); 92.72% in [2] (10 min); 89.75% in data set [2] (20 min); 87.96% in data set [2] (30 min); 86.27% in [2] (60 min); 83.65% in data set [2] (120 min). The entries for the “Degradation: compound remaining, AVERAGE” value in data set [2] (180 min) and in data set [2] (240 min) were 80.90% and 79.75%, respectively. The biotransformation / degradation in [2] amounted to 20%. The “compound present / remaining unmetabolized” value in data set [2] is listed as “up to 80%”. The inhibition at 10 µM is 85.6% in [3]; 71% in [4]; 85.1% in data set [5]; 90.2% in data set [6]; 97.6% in data set [7]; > 70% in data set [14].

Take `CSc1nc(-c2ccnc(NC(C)c3ccccc3)c2)c(-c2ccc(F)cc2)[nH]1` (stereo not shown) [ML3403, 4-(5-(4-fluorophenyl)-2-(methylthio)-1H-imidazol-4-yl)-N-(1-phenylethyl)pyridin-2-amine, reference compound]: the 50% inhibitory concentration (IC50) in data set [12] was 2980 ± 874 nM; in [9] (printed in Figure 1, known inhibitors, read-out: IC50 (TNF-α)), 2700 nM. The “Degradation: compound remaining, AVERAGE” value in [2] (0 min) came to 100.00%; in data set [2] (10 min), 80.59%; in [2] (20 min) it was 68.97%; in data set [2] (30 min) it was 57.93%; in data set [2] (60 min), 42.80%; in [2] (120 min), 31.72%. The results for the “Degradation: compound remaining, AVERAGE” value in data set [2] (180 min) and in data set [2] (240 min) were 24.06% and 16.25%, respectively. The “compound present / remaining unmetabolized” value in data set [2] is recorded as “less than 20%”. For the same compound, the half-life at 100 µM in data set [2] (both sexes, human, pooled human liver microsomes, pH 7.4, pooled HLM, this study, read-out: in vitro half-life (converted)) is 51.6 min. The in vitro half-life is recorded as 32.7 min in data set [15], 5.9 min in [16] and 11.4 min in [17].

As a reminder, the inhibition is the change of the read-out against control, counted positive when it falls. As a reminder, the Ki is the equilibrium dissociation constant of an inhibitor or competing ligand from its target. For orientation: IC50 means the concentration that inhibits the measured activity by half. The half-life is how long it takes for the measured level to halve.
